Laboratory results: a melting point compilation (Tetko et al.; mined from patent text by program, amines drawn as free bases though some values may be those of a salt)

Structure (SMILES)	melting point [°C]
Cc1cc(N2N=CCNC2=O)cc(Cl)c1C(C#N)c1ccc(Cl)nc1 (stereo not drawn)	211 to 212
COC(=O)C1=C(N)C(C)SC1 (stereo not drawn)	60
CCCOc1nsc(NC(=O)NC)c1C(N)=O	195 to 198
O=C(N[C@@H](Cc1ccc(C(F)(F)F)cc1)[C@H](O)c1ccc(F)cc1)c1ccc(C(F)F)c2ccccc12	212 to 213
CC(C)(C)c1ccnc(C(=O)c2[nH]c3cc(Cl)ccc3c2CC(=O)O)c1	203 to 205
COCCOc1cc2ncnc(Nc3cc(OC)c(Br)cc3OC)c2cc1OC	217 to 221
Cc1ccc(NC(=O)c2cccc(C(F)(F)F)c2)cc1-c1ccc2scnc2c1	90 to 93
COc1cccc(Nc2ccnc(Nc3cc(OC)c(OC)c(SC)c3)n2)c1	68 to 70
CCCSc1nc(-c2ccc(C#N)cc2)cn1-c1ccc(I)cc1	110 to 115
C=CCCc1ccc(C(=O)O)c(O)n1	151 to 155
CCN(CC)c1ccccc1C(=O)O	122 to 123
COc1ccc(-c2cccc(C=CC(=O)Nc3ccc(CN4CCCCC4)cc3)c2)cc1	150 to 151
CC1(C)c2ccccc2C(C)(C)N1Cc1ccccc1	61 to 61.4
CC(C)CCC(C)NC1=NS(=O)(=O)c2cc(Cl)ccc2N1 (stereo not drawn)	> 220
CC(=O)CSc1ccc(Cl)cc1C(=O)O	139 to 140
Cn1c(C(F)(F)F)cc(=O)n(-c2ccc3snc(CC(=O)O)c3c2)c1=O	240 to 242
CCCCOc1cc(/C=C(\OCC)C(=O)O)ccc1CCCc1ccc(OS(=O)(=O)CCCC)c(OC)c1	75
O=C(O)c1cccc(CN2C(=O)N(c3ccccc3Br)Cc3cnc(Nc4ccccc4)nc32)c1	180 to 183
CC(C)(C)N(C(=O)C(O)(C(=O)O)c1ccccc1)C(C)(C)C (stereo not drawn)	99 to 100
CN(CCOc1ccc2c(c1)OC(C)(C)C=C2c1ccc2ccccc2c1)Cc1ccccc1	112 to 115
CC(C)S(=O)(=O)c1cc(C#N)c(N)c(OCCCS(C)(=O)=O)c1	142 to 143
Oc1cc2cc3c(ccc4cc(O)c(O)cc43)nc2cc1O	> 270
Cc1c([N+](=O)[O-])c([N+](=O)[O-])c(Cl)c2c1=NC(=O)C(=O)N=2	346 to 348
COc1ccc(C(=O)c2c(F)cccc2F)cc1CC(=O)O	187
N=C(N)SCCc1ccc(Cl)c(Cl)c1	135 to 139
N#Cc1c2cccccc-2nc1NCCC(c1ccccc1)c1ccccc1	178 to 180

Structure (SMILES)	melting point [°C]
O=C(O)CCNc1c2ccc(Cl)cc2nc2c(=O)[nH][nH]c(=O)c12	356 to 359
CNC(=O)NCCSCc1[nH]cnc1C	158 to 159
CC(C)C(=O)n1cc(C(=O)C2CSC(c3cccnc3)N2)c2ccccc21 (stereo not drawn)	78 to 80
CCCn1c(=O)c2[nH]c(/C=C/c3ccc(OCOC)c(OC)c3)nc2n(CCC)c1=O	227
Cc1ccc(C(=O)C=CN(C)C)s1	118 to 121
O=C(CCCCCN1CCN(c2ccc3c(c2)CCCC3)CC1)N1Cc2ccccc2C1	123
Cc1cccc(NC(=O)NC2N=C(c3ccccc3F)c3ccccc3N(CCOC(=O)N3CC4CCC(CC4)C3)C2=O)c1 (racemic)	169 to 171
CS(=O)c1ccc(-c2nc(-c3ccc(F)cc3)c(-c3ccncc3)[nH]2)cc1 (stereo not drawn)	250 to 252
Cc1noc(NS(=O)(=O)c2ccc(I)cc2)c1Br	166 to 173
Cc1cc(N2CCN(c3c(C)c(C)c4c(c3C)CC(C)(C)O4)CC2)ccc1Cl	168 to 171
CCc1nnc2c(NC3CCC3)nc3ccccc3n12	215 to 217
CCC(CC)N(O)C(=O)Nc1cccc(Oc2ccccc2)c1	111
Clc1ccc(/C=C/c2ccc[nH]2)cc1	172
Cc1cc(-c2nc3cccnn3c2-c2ccnc(NC(=O)NC3CCC(O)CC3)c2)ccc1F (stereo not drawn)	218 to 220
Cc1ccc(S(=O)(=O)OCC2COc3ccc4nccnc4c3O2)cc1 (stereo not drawn)	124 to 127
COc1cc2c(Nc3ccc4cn[nH]c4c3)c(C#N)cnc2c(OC)c1OC	243 to 245
Oc1ccc2c(c1)CC(O)C2 (stereo not drawn)	112 to 115
COC1CCN(S(=O)(=O)c2ccc(S(N)(=O)=O)cc2C(F)(F)F)CC1	136 to 137
Clc1ccc(-c2nc(I)c[nH]2)cc1Cl	206 to 207
Nc1cc(Br)nn1-c1c(Cl)cc(C(F)(F)F)cc1Cl	132 to 134
Nc1ccc2c(c1)NC(=O)C(CCCN1CCN(c3ccc(F)cc3)CC1)O2 (stereo not drawn)	158 to 159
O=C(CCl)Nc1ccccc1C1C=CCC1 (stereo not drawn)	101 to 102
COCCNC(=O)c1cccc(-c2ccc3c(c2)N(c2ccc(Cl)cc2Cl)CC3)c1	119 to 120
O=C1CN(CC2CCN(c3ncc4ncnc(Nc5ccc(F)c(Cl)c5)c4n3)CC2)CCO1	202 to 204
NC(=O)CCN1CCC(c2noc3cc(F)ccc23)CC1	144 to 147
CN(C)C(=O)c1ccc(C(N)=O)cc1S(N)(=O)=O	202 to 205

Structure (SMILES)	melting point [°C]
CN(Cc1ccccc1)c1cc(=S)ss1	138 to 140
COC(=O)C1=CC(C(=O)c2ccc(OCc3ccccc3)c(C)c2O)=CN2CCc3c([nH]c4ccccc34)C12C(=O)OC (stereo not drawn)	216
CC1CN(C(=O)C(Cl)Cl)C(C)CN1C(=O)C(Cl)Cl (stereo not drawn)	215
COc1ccc(Cc2nccc3c4c(ccc23)OCO4)cc1OC	111
O=C(O)c1ccc2cc(-c3cc4ccccc4o3)ccn2c1=O	> 250
CCOC(=O)C1COc2ccc(NC(C)=O)cc2O1 (stereo not drawn)	138 to 140
COc1c(Cl)c(OC)c2cnoc2c1Cl	138 to 140
O=C(O)c1cccc(-c2ccc3c(c2)N(Cc2ccc(Cl)c(Cl)c2)CC3)c1	167 to 168
Clc1ccc2c(c1)CCc1cccnc1C2=C1CCN(Cc2cccnc2)CC1	115
CC(C)(C)C#CC(=O)C#CC(C)(C)C	62 to 63.5
CCCCc1nc2c(N)nc3ccc(OCC(=O)N(CCOC)CCOC)cc3c2n1C	125 to 128
CCOC(COc1ccc2c(-c3ccccc3F)noc2c1Cl)OCC	59
C=CC(O)c1ccccc1C#CC1C(O)C2CCN1CC2 (stereo not drawn)	148 to 150
COc1ccc(CS[C@@H]2C[C@@H](CSCc3ccccc3)N(S(C)(=O)=O)C2)cc1	69 to 71
COc1ccc(NC(=O)[C@H]2[C@H](c3ccccc3)C23CCCC3)c(OC)n1 (relative stereo)	131 to 133
CCc1nc2sc(S(N)(=O)=O)cc2c(=O)n1-c1ccccc1Cl	253
O=C(Oc1ccccc1)OC1C2=C(SCCS2)C(=O)N1c1ccc(Cl)cn1 (stereo not drawn)	178
CC(=O)Nc1ccc([N+](=O)[O-])c2c(Br)ccc(C)c12	216 to 217
CN(CCSC(=O)Cc1ccccc1Nc1c(Cl)cccc1Cl)CC1(S)CCCCC1	55
O=C(O)/C=C/n1cnc2ccc(Cl)cc2c1=O	297 to 298
O=C(O)/C=C(/C#Cc1ccccc1)c1ccccc1	124 to 126
O=C(NCCc1cccc(-c2nc(=O)c3ccccc3s2)n1)c1ccccc1	202 to 203
C#Cc1ccnc(-c2ccc(Br)cc2[N+](=O)[O-])c1	166 to 171
CN(CCS(C)(=O)=O)C1CCN(S(=O)(=O)c2ccc(Nc3nccc(-c4ccc(F)cc4)n3)cc2)CC1	166
CCCCCCCNC(=O)Nc1ccccc1C(=O)NCCn1cnc(-c2ccccc2)c1-c1ccccc1	170
O=Cc1ccccc1C(=O)c1ccccc1	64 to 67

Structure (SMILES)	melting point [°C]
CCC1Cc2cc(OCCCC(=O)O)c(Cl)c(Cl)c2C1=O (stereo not drawn)	146 to 148
CC(=O)c1ccc(-c2coc3ccc(-c4nnc(C)o4)cc23)cc1	197 to 198
Cc1nc(-c2ccccc2)nc(OCC(=O)N(CC2CC2)c2ccccc2)c1C	119 to 121
O=C1c2ccccc2C(=O)N1c1nc(Cl)nc(Cl)n1	175 to 179
COc1ccc(-c2ccc(C)cn2)c(F)c1F	73
CC(C)(C)NC(=O)CN(C(=O)CN1C(=O)c2ccccc2C1=O)c1ccccc1	166
ON=Cc1cc(Cl)ccc1O	125 to 126
CCOCn1c(Oc2cc(C)cc(C)c2)c(CC)c(=O)[nH]c1=O	139 to 140
COc1cc(CC(=O)N2CCN(c3nsc4ccccc34)CC2)c([N+](=O)[O-])cc1OC	170
Cc1cc(-n2cnnc2)cc(C=O)c1N	250 to 252
COc1cc(Cl)c(CO)c(Cl)c1	71 to 72
N#Cc1ccc(OCCc2c[nH]cn2)cc1	181 to 183
Nc1cccc2c1CC(O)CC2 (stereo not drawn)	88 to 91
Cc1csc(-c2ccc3c(c2)c2cc(-c4ccc(Cl)cc4Cl)c(=O)n(C)c2n3C)n1	255 to 257
O=S1(=O)CCN2C=CC=C(c3ccc(Oc4ccc(O)cc4)cc3)C2=N1	289 to 290
COCCC1CCCCN1C(=O)C=Cc1c(-c2ccccc2)nn2ccccc12 (stereo not drawn)	139 to 140
CC#CCOc1ccc(S(=O)(=O)C2(C(=O)O)CCOCC2)cc1	197
CCOC(=O)c1cnn(-c2ccc(OC(F)(F)F)cc2)c1N	102 to 103
COC(=O)NC=Cc1ccc(OCC2CO2)c(OC)c1 (stereo not drawn)	122 to 123
CCOCc1nc2c(N)nc(C)c(C)c2n1NCc1ccccc1	149 to 151
CCOC(=O)c1cnc(N2CCn3ccnc3C2)nc1NCc1ccc(OC)c(Cl)c1	179 to 182
Fc1cccc(Nc2nc(Cl)nc(NC3CCCCCC3)n2)c1	148
CC(=O)Nc1ccccc1OCCCO	78 to 80
COC(=O)C(O)C(CC(C)C)NC(=O)C(Cc1c[nH]cn1)NC(=O)C(CC(=O)N1CCCCC1)Cc1cccc2ccccc12 (mixture of isomers)	91 to 97
CN1c2ccccc2Sc2cc(C=CC3(C=Cc4ccc5c(c4)Sc4ccccc4N5C)C=CC(c4ccccc4)=CC3)ccc21 (stereo not drawn)	380
